The values below come from ChEMBL document CHEMBL1138953 (Bioorg Med Chem Lett, 2006).

For one experiment, the target named is Cannabinoid receptor 1 (Homo sapiens, UniProt P21554). As to the kind of experiment: Displacement of [3H]CP-55-940 from human recombinant CB1 receptor in COS cells. The class given is cell-based. For orientation: Loss of bound radioactivity is the signal in a displacement assay; it reports binding, not function.
In the next experiment the target is Cannabinoid receptor 2 (Homo sapiens, UniProt P34972). As to the kind of experiment: Displacement of [3H]CP-55-940 from human recombinant CB2 receptor in COS cells. Format: cell-based.

The structures appear in SMILES notation.

Chain of Cannabinoid receptor 2 (P34972 whole entry): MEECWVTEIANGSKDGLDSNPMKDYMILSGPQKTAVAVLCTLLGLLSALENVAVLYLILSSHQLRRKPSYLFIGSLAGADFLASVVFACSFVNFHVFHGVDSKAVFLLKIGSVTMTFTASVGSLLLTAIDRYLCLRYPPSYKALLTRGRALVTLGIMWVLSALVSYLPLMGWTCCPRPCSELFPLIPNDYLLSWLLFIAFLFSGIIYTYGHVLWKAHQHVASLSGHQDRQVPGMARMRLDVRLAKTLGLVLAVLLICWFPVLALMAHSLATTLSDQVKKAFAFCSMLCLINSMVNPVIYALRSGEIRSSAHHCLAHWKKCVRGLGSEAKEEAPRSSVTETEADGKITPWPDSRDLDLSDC
Chain of Cannabinoid receptor 1 (P21554 whole entry): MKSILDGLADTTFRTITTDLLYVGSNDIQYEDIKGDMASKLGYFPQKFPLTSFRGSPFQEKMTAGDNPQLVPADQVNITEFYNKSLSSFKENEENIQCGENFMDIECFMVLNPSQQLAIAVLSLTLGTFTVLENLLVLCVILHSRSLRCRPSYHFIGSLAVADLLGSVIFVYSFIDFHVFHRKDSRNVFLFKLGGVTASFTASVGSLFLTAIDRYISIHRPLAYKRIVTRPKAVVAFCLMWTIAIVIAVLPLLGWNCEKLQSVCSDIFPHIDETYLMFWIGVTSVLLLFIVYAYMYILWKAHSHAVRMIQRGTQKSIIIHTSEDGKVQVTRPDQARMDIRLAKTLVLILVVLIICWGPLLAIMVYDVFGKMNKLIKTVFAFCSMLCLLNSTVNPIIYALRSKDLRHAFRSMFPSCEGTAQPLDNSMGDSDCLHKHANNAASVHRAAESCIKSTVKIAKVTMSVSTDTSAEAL

As to `C[C@H](CO)NC(=O)CCC/C=C\C/C=C\C/C=C\C/C=C\CCOC(=O)c1cc(I)ccc1N=[N+]=[N-]`, the Ki at Cannabinoid receptor 1 came out at 570 nM; on Cannabinoid receptor 2 it was 220 nM.

As a reminder, the Ki is a dissociation constant, usually derived from enzyme kinetics or from competition with a known ligand.
